Experimental data taken from patent US12180215B2, “Substituted pyrrolo[3,4-d]imidazoles as JAK inhibitors” (HENAN MEDINNO PHARMACEUTICAL TECHNOLOGY CO., LTD., priority 2019, dated 2024).

Key:
JAK3 = JAK3 (Homo sapiens, UniProt P52333); assay: JAK3 kinase ADP-Glo assay (Example 59); type: biochemical; design: purchased Invitrogen PV3855; conditions: for IC50: JAK3 (Invitrogen) 0.5 nM, ATP 10 μM, Poly (4:1 Glu, Tyr) 0.03 mg/mL, 25° C. 60 min, read-out: IC50 (nM), JAK3 Experiment
JAK1 = JAK1 (Homo sapiens, UniProt P23458); assay: JAK1 kinase ADP-Glo assay (Example 59); type: biochemical; design: purchased Invitrogen PV4774; conditions: for IC50: JAK1 (Invitrogen) 4 nM, ATP 20 μM, IRS1 0.05 mg/mL, 25° C. 60 min, read-out: IC50 (nM), JAK1 Experiment
Chain of JAK1 (P23458 866-1154 limits assumed): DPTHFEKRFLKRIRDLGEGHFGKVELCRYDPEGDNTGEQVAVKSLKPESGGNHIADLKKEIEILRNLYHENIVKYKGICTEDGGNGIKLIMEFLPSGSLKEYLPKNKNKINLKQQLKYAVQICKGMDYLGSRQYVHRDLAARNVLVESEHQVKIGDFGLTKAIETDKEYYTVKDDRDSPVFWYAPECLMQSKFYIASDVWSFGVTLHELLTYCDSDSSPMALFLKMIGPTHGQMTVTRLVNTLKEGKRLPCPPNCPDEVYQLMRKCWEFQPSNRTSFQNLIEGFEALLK

JAK2 = JAK2 (Homo sapiens, UniProt O60674); assay: JAK2 kinase ADP-Glo assay (Example 59)
Chain of JAK2 (O60674 808-1132 limits assumed): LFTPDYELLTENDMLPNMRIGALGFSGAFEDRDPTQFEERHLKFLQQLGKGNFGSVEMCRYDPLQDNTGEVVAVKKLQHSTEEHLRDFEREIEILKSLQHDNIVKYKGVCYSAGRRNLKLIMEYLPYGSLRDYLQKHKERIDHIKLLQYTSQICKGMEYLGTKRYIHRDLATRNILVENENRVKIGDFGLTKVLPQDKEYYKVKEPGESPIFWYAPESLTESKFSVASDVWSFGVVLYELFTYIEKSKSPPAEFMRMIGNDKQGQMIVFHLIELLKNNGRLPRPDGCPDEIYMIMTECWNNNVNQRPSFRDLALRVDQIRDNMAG

TYK2 = target: T1, TYK2 (Homo sapiens, UniProt P29597); assay: TYK2 kinase ADP-Glo assay (Example 59); type: biochemical; conditions: for IC50: TYK2 (Invitrogen) 4 nM, ATP 10 μM, IRS1 0.03 mg/mL, 25° C. 60 min, read-out: IC50 (nM), TYK2 Experiment
T1 construct: purchased Invitrogen PV4790
T1 sequence (P29597 833-1187 limits assumed): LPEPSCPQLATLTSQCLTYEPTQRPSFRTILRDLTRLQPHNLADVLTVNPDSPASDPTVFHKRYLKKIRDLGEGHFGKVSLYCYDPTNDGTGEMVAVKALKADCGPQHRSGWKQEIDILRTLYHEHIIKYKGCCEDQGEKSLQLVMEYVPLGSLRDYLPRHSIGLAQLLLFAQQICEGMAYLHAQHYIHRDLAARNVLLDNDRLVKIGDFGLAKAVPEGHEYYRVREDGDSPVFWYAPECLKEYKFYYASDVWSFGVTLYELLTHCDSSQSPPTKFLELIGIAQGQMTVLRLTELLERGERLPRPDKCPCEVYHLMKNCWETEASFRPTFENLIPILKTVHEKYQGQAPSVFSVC

[1] = system: itching caused by allergic dermatitis; conditions: cited from earlier work
[2] = in vivo; cited from earlier work
[3] = slope of the nonlinear IC50 fit

Chain of JAK3 (P52333 781-1124 limits assumed): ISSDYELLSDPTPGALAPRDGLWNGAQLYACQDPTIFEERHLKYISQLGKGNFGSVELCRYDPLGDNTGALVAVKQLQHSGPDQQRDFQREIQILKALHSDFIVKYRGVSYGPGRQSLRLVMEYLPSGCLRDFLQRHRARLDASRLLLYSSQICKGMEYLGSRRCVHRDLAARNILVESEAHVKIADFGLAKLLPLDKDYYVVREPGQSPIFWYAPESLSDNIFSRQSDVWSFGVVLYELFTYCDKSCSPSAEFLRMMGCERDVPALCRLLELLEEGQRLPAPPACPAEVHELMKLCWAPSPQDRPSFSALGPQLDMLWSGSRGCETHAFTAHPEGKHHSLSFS

SMILES | IC50 (JAK3) [nM] | IC50 (JAK1) [nM] | IC50 (JAK2) [nM] | IC50 (TYK2) [nM] | other results
CCc1cc(O)c(F)cc1-c1ccc2c(-c3nc4c([nH]3)CN(S(=O)(=O)c3ccccc3)C4)n[nH]c2c1 [MDI-206, 5-ethyl-2-fluoro-4-(3-(5-(benzenesulfonyl)-1,4,5,6-tetrahydropyrrolo[3,4-d]imidazol-2-yl)-1H-indazol-6-yl)phenol] | 0.628 | 0.943 | 0.556 | 7.23 | Hillslope, JAK3 Experiment (JAK3; [3]): 1.216; Hillslope, JAK1 Experiment (JAK1; [3]): 1.091; Hillslope, JAK2 Experiment (JAK2; Example 59, slope of the nonlinear IC50 fit): 1.457; Hillslope, TYK2 Experiment (TYK2; [3]): 0.744
CNS(=O)(=O)C[C@H]1CC[C@H](N(C)c2ncnc3[nH]ccc23)CC1 [Olatinib] |  |  |  |  | experimental animals (dogs) that alleviated the itching response by more than 50% ([1]; on the 7th day): more than 70%; time to relieve itching during the treatment ([1]; oral administration of 0.4-0.6 mg/kg twice a day): ≤ 24 h
N#CC[C@H](C1CCCC1)n1cc(-c2ncnc3[nH]ccc23)cn1 [Ruxolitinib] |  |  |  |  | incidence of the most common hematological adverse effects (low platelet counts and anemia) [2]: > 20%; incidence of the most common non-hematological adverse effects (ecchymosis, dizziness and headache) [2]: > 10%

Now from value to compound, other results behind:

IC50 (JAK3) [nM] | IC50 (JAK1) [nM] | IC50 (JAK2) [nM] | IC50 (TYK2) [nM] | SMILES | other results
0.132 | 0.12 | 0.16 | 0.474 | CCc1cc(O)c(F)cc1-c1ccc2c(-c3nc4c([nH]3)CN(Cc3cnccn3)C4)n[nH]c2c1 [MDI-207, 5-ethyl-2-fluoro-4-(3-(5-(pyrazin-2ylmethyl)-1,4,5,6-tetrahydropyrrolo[3,4-d]imidazol-2-yl)-1H-indazol-6-yl)phenol] | 
0.158 | 0.128 | 0.165 | 0.281 | CCc1cc(O)c(F)cc1-c1ccc2c(-c3nc4c([nH]3)CN(C(=O)C3CC3)C4)n[nH]c2c1 [MDI-209, cyclopropyl (2-(6-(2-ethyl-5-fluoro-4-hydroxyphenyl)-1H-indazol-3-yl)pyrrolo[3,4-d]imidazol-5(1H, 4H,6H)-yl)ketone] | 
0.16 | 0.162 | 0.198 | 0.266 | CCc1cc(O)c(F)cc1-c1ccc2c(-c3nc4c([nH]3)CN(C(=O)C3CCC3)C4)n[nH]c2c1 [MDI-211, cyclobutyl (2-(6-(2-ethyl-5-fluoro-4-hydroxyphenyl)-1H-indazol-3-yl)pyrrolo[3,4-d]imidazol-5(1H, 4H,6H)-yl)ketone] | 
0.116 | 0.146 | 0.166 | 0.146 | CCc1cc(O)c(F)cc1-c1ccc2c(-c3nc4c([nH]3)CN(C(=O)C3CC(O)C3)C4)n[nH]c2c1 (stereo not shown) [MDI-213, (2-(6-(2-ethyl-5-fluoro-4-hydroxyphenyl)-1H-indazol-3-yl)pyrrolo[3,4-d]imidazol-5(1H,4H,6H)-yl)(3-hydroxylcyclobutyl)ketone] | 
